Measured values published in patent US9393204B2, “Methods and compositions employing bicifadine for treating disability or functional impairment associated with acute pain, chronic pain, or neuropathic disorders” (EBI Life Sciences, Inc., priority 2002, dated 2016).
Entries after “also recorded” stand apart in the source; their conditions may differ. Where a name gives a salt, the structure may show the parent alone.

Legend:
[1] = test system: neuropathic pain; experiment: Spinal nerve ligation (Chung) model; details: in vivo
[2] = test system: acute inflammatory pain; details: animal model of acute inflammatory pain; cited from earlier work
[3] = test system: post-operative dental pain; experiment: Analgesic efficacy of bicifadine SR tablets in post-operative dental pain study; format: in vivo, human
Protocol: These conclusions are further substantiated by the use of rescue medication by subjects in the Stem et al. acute dental pain studies. Table 5 below summarizes information on the use of rescue medication for patients who took rescue medication among the various treatment groups in the clinical trial reported by Stern et al. (id.) A nonparametric analysis (Median Test) was conducted to evaluate the median latency to rescue medication.
Survival analysis (Kaplan-Meier method, 95% confidence) was performed to compare the treatment groups with regard to time-to-rescue medication. […] The analysis yielded a statistically significant difference among the treatment groups (Log-Rank test, Chi-square=26.9, df=4, P=0.0001).
(§1) Healthy adult male and female human subjects who underwent surgical extraction of two or more impacted third molars were enrolled in the study. Following cessation of the local anesthetic effect and onset of pain of at least 40 mm intensity on the 100 mm VAS, patients were randomized to into 1 of the 5 treatment arms (n˜108 per arm) and remained in the clinic for the subsequent 12 hours of the study. The study subjects were randomized to receive either a single dose of: 200 mg, 400 mg or 600 mg bicifadine SR tablets, Tramadol 100 mg, or Placebo. Analgesia ratings were obtained over a 12 h post-dosing period. Rescue medication (acetaminophen) was available, but no analgesia measures were taken after the use of rescue medication by a given patient. A subset of 150 patients provided blood samples at 0.5 hr and hourly intervals following dosing with study medication for the purpose of determining bicifadine levels (n=90).
The main efficacy endpoints utilized in the overall study (n˜540) were the individual assessment of Pain Severity and Pain Relief scores at a given time point; the derived scores (PID, PRID, SPID, SPRID, TOTPAR), and the global improvement. The last observation carried forward (LOCF) approach was used to estimate change over time for those patients who used rescue medication. For the full study efficacy evaluations, one-way analysis of covariance with baseline pain severity as a covariate was applied. The global tests which included all treatment arms were followed by post-hoc comparisons of the individual treatment arms vs. placebo.
The relationship between mean pain relief ratings (PRR) and mean plasma bicifadine levels was determined at three exemplary plasma level ranges: between 0-500 ng/ml, 500-1000 ng/ml, and >1000 ng/ml, respectively. A clear positive relationship was observed across 3 ranges of bicifadine levels. In particular, bicifadine plasma concentrations in the >1000 ng/ml range were associated with a PR score approximately 3 times as high as plasma concentrations in the 0-500 ng/ml range (p<0.001, Hierarchical Linear Model analysis).
The probability of treatment response as a function of bicifadine blood concentration levels was also determined. Association between the probability of treatment response and bicifadine blood concentration levels was investigated with the widely known Generalized Estimating Equation (GEE) approach. For the purpose of the GEE analyses described here, bicifadine blood concentration was treated as a continuous independent (predictor) variable. Treatment (analgesic) response served as a dichotomous (yes, no) dependent variable in the GEE model. In particular, treatment response for each individual patient for each of the time points was defined as a Pain Relief Rating of 3 or more (range 0-4).

[4] = test system: chronic low back pain (CLBP); experiment: Chronic low back pain (CLBP) study, bi-daily dosing; format: in vivo, human
Protocol: The present study evaluated the therapeutic efficacy of a reduced dosing regimen employing bicifadine in a bi-daily (BID) dosing protocol to treat chronic low back pain (CLBP). More than 800 study subjects were recruited in this study, and a subset of these subjects was administered 400 mg of a sustained release oral dosage form (formula M; example 15) of bicifadine BID to evaluate the long-term analgesic efficacy of bicifadine for treating CLBP. […] The following outcome measures were assessed in the study:
Inclusion criteria for study subjects, as selected for other studies herein, included the following: Subjects were at least 18 years of age. If subject was female and of childbearing potential, the subject had to have a negative serum pregnancy test during the screening period. Subjects were required to have […] during the screening period.
Other exclusionary criteria in this study included: Low back pain due to acute fracture, infection, severe osteoporosis, malignancy, marked scoliosis, or severe congenital malformation such as spina bifida; Receipt of an epidural injection of corticosteroid in the lower back within 1 month prior to the baseline visit; Use of any antidepressant for pain or sleep (including SSRIs or SNRIs), anti-epileptic, or muscle relaxant, or receipt of transcutaneous electrical nerve stimulation, chiropractic adjustment, or acupuncture within 3 weeks prior to the baseline visit; Use of any antidepressant (including SSRIs or SNRIs) for depression within 3 months prior to the baseline visit; Use of any opioid analgesic or benzodiazepine (or other sedative-hypnotic) within 2 weeks prior to the baseline visit; Use of any NSAID (except aspirin<81 mg per day or <325 mg every other day for cardiac prophylaxis and except ibuprofen) or any non-opioid analgesic (except acetaminophen) within 1 week, or acetaminophen or ibuprofen within 60 hours, prior to the baseline visit; Active malignancy of any type or history of a malignancy within 5 years prior to the first dose of study medication (patients with treated localized basal or squamous cell carcinoma of the skin within 5 years are permitted); Active GI disease (including any GI surgery that, in the Investigator's opinion, would interfere with the absorption of the study medication), or a chronic or acute renal or hepatic disorder; Mental instability, known substance abuse, history of clinically significant depression or alcoholism, or incapacity of being compliant with the requirements of the study; Any clinically significant cardiovascular, renal, endocrine, hepatic, immunologic, respiratory, neurologic, gastrointestinal, psychiatric, or hematologic disease, or any underlying serious medical condition that would preclude patient's participation in the study; and, other standard, relevant exclusion criteria.
Patients who qualified for enrollment into the study completed the PSR test, Roland-Morris Disability Questionnaire, Short Form McGill Pain Questionnaire (SF-MPQ) and the SF-36 quality of life survey at the baseline visit and at various time points throughout the study.
Study subjects were randomized on a 25:6 basis to receive either bicifadine 400 mg BID or SOC treatment, respectively. SOC treatment was provided as any appropriate pharmacological analgesic treatment selected by the investigator based on the subjects' baseline and ongoing presentation. Subjects were permitted to reduce the dose for tolerability reasons, first to bicifadine 300 mg BID, and then, if necessary, to bicifadine 200 mg BID.
Summary statistics, including observed means and standard deviations along with mean change from baseline were summarized by visit for each outcome measure. Incidence of discontinuation due to lack of efficacy and its 95% confidence interval were likewise calculated. The median and its 95% confidence interval and a Kaplan-Meier plot were provided for Time to Discontinuation due to lack of efficacy and other reasons. […]

[5] = Pharmacokinetics of bicifadine SR tablets in acute dental pain study; format: in vivo, human; details: 90 patients
Protocol: as §1
Plasma time course profiles were determined in a subset of 30 subjects (15 male/15 female) from each treatment group.

[6] = test system: acute pain; experiment: Acute pain studies (acute dental pain and bunionectomy pain); format: in vivo, human; details: unit doses of about 200 mg, 400 mg or 600 mg
[7] = test system: acute, nociceptive pain following dental surgery; details: cited from earlier work
[8] = patients with low back pain and radiating pain

For Cc1ccc(C23CNCC2C3)cc1 (racemic) [Bicifadine HCl, (±)-1-(4-methylphenyl)-3-azabicyclo[3.1.0]hexane hydrochloride], the “efficacy in the spinal nerve ligation (Chung) model” value [1] is given as “effective”, the “activity in the Randall-Selitto test” value [2] is given as “potent and active” and the “SPRID-6 and other derived analgesia scores versus placebo” value ([3]; 200 mg single dose) is given as “better than placebo on some measures”. For the same molecule, the “SPRID-6 and other derived analgesia scores versus placebo” value ([3]; 400 mg single dose) was “statistically superior to placebo”, the “SPRID-6 and other derived analgesia scores versus placebo” value ([3]; 600 mg single dose) was “statistically superior to placebo” and the “drug levels associated with significant analgesic efficacy” value ([3]; acute dental pain) was 500 to 1000 ng/mL. The minimally effective dose ([3]; acute dental pain) was 200 mg, the “plasma bicifadine levels associated with the greatest pain relief” value ([3]; acute dental pain) was over 1000 ng/mL and the “plasma drug levels not associated with significant analgesic effects” value ([3]; acute dental pain) was at most 500 ng/mL. The “Odds Ratio of Response (Pain Relief Rating of 3 or more)” value ([3]; for an increase of 500 ng/ml in bicifadine blood levels, GEE, p=0.006) was 1.59, the “PR score at plasma concentrations >1000 ng/ml relative to 0-500 ng/ml range” value ([3]; p<0.001, Hierarchical Linear Model) was “approximately 3 times” and the “therapeutic efficacy from pain relief data (VAS)” value ([4]; BID dosing, 4.5 month period, versus SOC) was “comparable to that of standard of care (SOC) treatment”. The improved functional/activity results ([4]; BID dosing, versus SOC) was “comparable to those observed among SOC-treated subjects”, the “VAS pain scores compared to placebo” value ([4]; baseline RDQ score greater than 17) was “significantly reduced” and the “subjects with at least a 50% reduction in VAS scores, relative to placebo” value ([4]; baseline RDQ score greater than 17, hydrochloride) was “at least three times as many; also recorded: roughly three times the percentage”. The “percentage of subjects with 50% or greater reduction in RDQ scores, relative to placebo (less than 15%)” value ([4]; baseline RDQ>17, 400-800 mg/day) was “roughly twice this percentage”, the “disability scores on the RDQ versus placebo” value ([4]; baseline RDQ>17, 400-800 mg/day, hydrochloride) was “significant activity for reversing disabilities and enhancing functional/activity performance; also recorded: significantly decreased” and the “improvement in VAS pain score compared to placebo” value [4, 8] was 11 mm. For the same molecule, the “responsiveness to treatment versus patients with only localized back pain” value [4, 8] was “two times more responsive”, the “relationship between bicifadine dose and AUC” value [5] was “clear dose proportional relationship” and the “period of analgesic efficacy for effectively treating acute pain” value [6] was “up to 6 hours”. The “efficacy relative to codeine and tramadol” value [7] was “as effective as codeine and tramadol”.
With COc1cccc(C2(O)CCCCC2CN(C)C)c1 (centres unmarked) [tramadol, reference compound] the “use of rescue medication versus placebo (time-to-rescue, Log-Rank)” value ([3]; 100 mg, P=0.0001) was “significantly less likely to use rescue medication”.
